# Data: US20220323795A1, “COMBINATION OF CICLOPIROXOLAMINE AND PIROCTONE OLAMINE FOR COMBATING DANDRUFF” (PIERRE FABRE DERMO-COSMETIQUE, priority 2019, published 2022)
# Where two headings read alike, the source gives them in different places.
# What was measured:
# M. globosa (IP2387.96) [1] = assay: Minimum inhibitory concentration (MIC) by micromethod in liquid medium; format: cell-based, Malassezia globosa; details: product alone
# Description: (§1) The strains originate from the collection of the Institut Pasteur (Fungi collection, Paris France) for M. globosa (IP2387.96) and from the collection of CBS-KNAW for M. restricta (CBS7877). These strains represent and correspond to the majority of strains involved in dandruff. The strains are incubated for 5 days at 30° C. on modified Dixon agar under aerobic conditions. The inoculation suspensions are prepared in sterile distilled water and are concentrated to 10^7 CFU/ml. The determination of the minimum inhibitory concentration (MIC) is performed by micromethod in a liquid medium. 100 μl of liquid culture medium is deposited in each well of a sterile 96-well microplate. 100 μl of the solutions to be tested is deposited in the first well of a line of the plate. Dilutions by a factor of 2 are then carried out for wells 1 to 10. The test suspensions of each microorganism are prepared immediately before use in Tryptone salt. 100 μl is deposited in each well of a second microplate, with the exception of column 11. All of the first plate is inoculated using a Denley multipoint inoculate, from the second microplate. After incubation, the MIC are defined as the largest dilution with the absence of visible growth. Columns 11 and 12 serve respectively as a negative and positive control for growth.
# (§2) The products tested are: • ciclopiroxolamine, at 3% (wt/wt) with sterile distilled water, • piroctone olamine at 0.3% (wt/wt) with 10% ethanol, • ketoconazole (positive control) at 1000 μg/ml (wt/wt) with 10% DMSO, • piroctone olamine/ciclopiroxolamine combinations, with respective concentrations of 0.15% and 0.75%.
# (§3) The solutions are prepared at the time of the test and used immediately. An ethanol control was produced, solution at 10%.
# (§4) The synergistic effect of two products is determined by calculating the synergy index (FIC, Fractional Inhibitory Concentration).
# (§5) FIC Index=(MIC product A combined)/(MIC product alone)+(MIC product B combined)/(MIC product B alone).
# (§6) The maximum test concentration corresponds to the concentration of the parent solution/2.
# M. globosa (IP2387.96) [2] = assay: Minimum fungicide concentration (MFC) by subculturing the MIC microplates on agar medium; format: cell-based, Malassezia globosa; details: product alone
# Description: as §1, §2
# (§7) The determination of the minimum fungicide concentrations (MFC) is carried out by subculturing the MIC microplates on agar medium, using the Denley multipoint inoculator. After incubation, the MFC are defined as the largest dilution with the absence of visible growth. All the tests were carried out in duplicate.
# M. restricta (CBS7877) [3] = assay: as above; format: cell-based, Malassezia restricta
# Description: as §1, §2, §7
# M. restricta (CBS7877) [4] = assay: Minimum inhibitory concentration (MIC) by micromethod in liquid medium; format: cell-based, Malassezia restricta
# Description: as §1, §2, §3, §4, §5, §6
# Malassezia globosa = assay: Fungicidal activity, log reduction of colonies after contact time; format: cell-based; details: PO 0.3%, CPO 1.5%, ketoconazole 2%, PO/CPO 0.3%/1.5%, 10^7 CFU/ml
# Description: (§8) The products to be tested alone and combined at the defined concentrations are placed in contact with a suspension of Malassezia containing 10^7 CFU/ml for a contact time of 5 minutes, 15 minutes and 30 minutes. After each contact time, a sample is taken, then diluted and filtered on a cellulose membrane. Each membrane is then deposited on the agar medium (Dixon) and incubated at 30° C. After incubation, the colonies are counted.
# (§9) The products tested are: • ciclopiroxolamine, at 1.5% (wt/wt) diluted with sterile distilled water, • piroctone olamine at 0.3% (wt/wt) dissolved in ethanol, then addition of water for injectable preparations (final ethanol concentration of 9%), • ketoconazole (positive control) at 2% (wt/wt) dissolved in DMSO, then addition of water for injectable preparations (final concentration of DMSO 9%). • piroctone olamine/ciclopiroxolamine combinations, with respective concentrations of 0.3% and 1.5%.
# (§10) The solutions are prepared at the time of the test and used immediately.
# Malassezia restricta = assay: as above; format: cell-based; details: PO 0.3%, CPO 1.5%, ketoconazole 2%, PO/CPO 0.3%/1.5%, 10^7 CFU/ml
# Description: as §8, §9, §10
# [5] = Malassezia globosa, read-out: MIC
# [6] = Malassezia globosa, read-out: MFC
# [7] = Malassezia restricta, CBS7877, product alone, read-out: MFC
# [8] = Malassezia restricta, CBS7877, product alone, read-out: MIC
MIC (M. globosa (IP2387.96) [1]; [5]) [µg/mL],MIC (M. globosa (IP2387.96) [1]; % (wt/wt)),MIC (M. restricta (CBS7877) [4]; [8]) [µg/mL],"MIC (M. restricta (CBS7877) [4]; product alone, % (wt/wt))",MIC (M. globosa (IP2387.96) [1]) [µg/mL],MIC (M. restricta (CBS7877) [4]; product alone) [µg/mL],Compound,MFC (M. globosa (IP2387.96) [2]; [6]) [µg/mL],MFC (M. globosa (IP2387.96) [2]; % (wt/wt)),MFC (M. restricta (CBS7877) [3]; [7]) [µg/mL],"MFC (M. restricta (CBS7877) [3]; product alone, % (wt/wt))",Log Reduction (Malassezia globosa; contact time 5 minutes),Log Reduction (Malassezia globosa; contact time 15 minutes),Log Reduction (Malassezia globosa; contact time 30 minutes),Log Reduction (Malassezia restricta; contact time 5 minutes),Log Reduction (Malassezia restricta; contact time 15 minutes),Log Reduction (Malassezia restricta; contact time 30 minutes),MFC (M. globosa (IP2387.96) [2]) [µg/mL],MFC (M. restricta (CBS7877) [3]; product alone) [µg/mL]
29,2.9 × 10^−3%,15,1.5 × 10^−3%,,,"Cc1cc(C2CCCCC2)n(O)c(=O)c1 [CPO, ciclopiroxolamine]",29,2.9 × 10^−3%,15,1.5 × 10^−3%,2.45,3.88,>4.22,1.99,3.3,>4.17,,
0.98,,0.49,,,,"CC(=O)N1CCN(c2ccc(OCC3COC(Cn4ccnc4)(c4ccc(Cl)cc4Cl)O3)cc2)CC1 (centres unmarked) [Keto, ketoconazole]",1.94,,0.49 to 0.98,,1.47,1.29,1.19,0.85,1.12,1.09,,
,2.3 × 10^−3%,,2.3 × 10^−3%,23,23,"Cc1cc(CC(C)CC(C)(C)C)n(O)c(=O)c1.NCCO (centres unmarked) [PO, piroctone olamine]",,2.3 × 10^−3%,,2.3 × 10^−3%,0.36,0.61,1.24,1.19,1.28,1.73,23,23
